Results as given in patent publication US20240376097A1, “BCL-2 Inhibitor” (BeiGene Ltd., priority 2020, published 2024).
Where two headings read alike, the source gives them in different places.

Legend:
Assay type in all cases: binding
[1] = target: Recombinant human Bcl-2 protein (Homo sapiens (Human), UniProt P10415); assay: Bcl-2 TR-FRET Assay
How it was run: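 Displacement of FITC-labelled Bak peptide (0.5 nM) from 0.05 nM human Bcl-2, detected by TR-FRET with Tb-cryptate anti-6His antibody after 1 h at room temperature. Compounds, 10-point series, preincubated 0.5 h with protein in 20 mM potassium phosphate pH 7.5, 50 mM NaCl. IC50s fitted by four-parameter logistic.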

[2] = target: recombinant human Bcl-2-G101V protein (Homo sapiens (Human), UniProt P10415, G101V); assay: Bcl-2-G101V TR-FRET Assay; details: Bcl-2 G101V mutant, TR-FRET; read-out: Biochemical assay (IC50, nM) Bcl-2 G101V
How it was run: (§1)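 Displacement of ligand from recombinant human Bcl-2-G101V measured by TR-FRET (ex337 nm, em490/520 nm), inhibition derived from the 490/520 ratio across compound titrations. IC50 from four-parameter logistic fit.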

[3] = tested on: recombinant human Bcl-2-G101V protein; assay: Bcl-2-G101V TR-FRET Assay; details: for Ratio of Bcl-2 G101V/WT: ratio of biochemical IC50 Bcl-2 G101V / Bcl-2 WT; for ratio of IC50 of Bcl-2 G101V/Bcl-2 wt, compared with Example F132b in WO2019210828 and ABT-199 (venetoclax): comparison in words
How it was run: as §1

[4] = Bcl-2 wild type, TR-FRET, read-out: Biochemical assay (IC50, nM) Bcl-2 WT
[5] = wild type Bcl-2, unit inferred, read-out: Bcl-2 WT

SMILES | IC50 [1, 4] | IC50 [1, 5] | IC50 [2] | Ratio of Bcl-2 G101V/WT [3] | ratio of IC50 of Bcl-2 G101V/Bcl-2 wt, compared with Example F132b in WO2019210828 and ABT-199 (venetoclax) [3]
CC(C)c1ccccc1C1CN(Cc2ccc(F)cc2)CCN1C1CC2(CCN(c3ccc(C(=O)NS(=O)(=O)c4ccc(NC[C@H]5CC[C@](C)(O)CC5)c([N+](=O)[O-])c4)c(Oc4cnc5[nH]ccc5c4)c3)CC2)C1 (some centres unmarked) [Example 28, 2-((1H-pyrrolo[2,3-b]pyridin-5-yl)oxy)-4-(2-(4-(4-fluorobenzyl)-2-(2-isopropylphenyl)piperazin-1-yl)-7-azaspiro[3.5]nonan-7-yl)-N-((4-((((1r,4r)-4-hydroxy-4-methylcyclohexyl)methyl)amino)-3-nitrophenyl)sulfonyl)benzamide] | 0.23 nM | 0.23 nM | 0.82 nM | 3.6 | –
CC(C)c1ccccc1C1CN(Cc2ccc(Cl)cc2)CCN1C1CC2(CCN(c3ccc(C(=O)NS(=O)(=O)c4ccc(NC[C@H]5CC[C@](C)(O)CC5)c([N+](=O)[O-])c4)c(Oc4cnc5[nH]ccc5c4)c3)CC2)C1 (some centres unmarked) [Example 29, 2-((1H-pyrrolo[2,3-b]pyridin-5-yl)oxy)-4-(2-(4-(4-chlorobenzyl)-2-(2-isopropylphenyl)piperazin-1-yl)-7-azaspiro[3.5]nonan-7-yl)-N-((4-((((1r,4r)-4-hydroxy-4-methylcyclohexyl)methyl)amino)-3-nitrophenyl)sulfonyl)benzamide] | 0.29 nM | 0.29 nM | 1.5 nM | 5.2 | –
CC(C)c1ccccc1C1CN(Cc2ccc(C(F)(F)F)cc2)CCN1C1CC2(CCN(c3ccc(C(=O)NS(=O)(=O)c4ccc(NC[C@H]5CC[C@](C)(O)CC5)c([N+](=O)[O-])c4)c(Oc4cnc5[nH]ccc5c4)c3)CC2)C1 (some centres unmarked) [Example 41, 2-((1H-pyrrolo[2,3-b]pyridin-5-yl)oxy)-N-((4-((((1r,4r)-4-hydroxy-4-methylcyclohexyl)methyl)amino)-3-nitrophenyl)sulfonyl)-4-(2-(2-(2-isopropylphenyl)-4-(4-(trifluoromethyl)benzyl)piperazin-1-yl)-7-azaspiro[3.5]nonan-7-yl) benzamide] | 0.83 nM | 0.83 nM | 3.8 nM | 4.6 | –
CC(C)c1ccccc1C1CN(Cc2cccc(F)c2)CCN1C1CC2(CCN(c3ccc(C(=O)NS(=O)(=O)c4ccc(NC[C@H]5CC[C@](C)(O)CC5)c([N+](=O)[O-])c4)c(Oc4cnc5[nH]ccc5c4)c3)CC2)C1 (some centres unmarked) [Example 43, 2-((1H-pyrrolo[2,3-b]pyridin-5-yl)oxy)-4-(2-(4-(3-fluorobenzyl)-2-(2-isopropylphenyl)piperazin-1-yl)-7-azaspiro[3.5]nonan-7-yl)-N-((4-((((1r,4r)-4-hydroxy-4-methylcyclohexyl)methyl)amino)-3-nitrophenyl)sulfonyl)benzamide] | 0.31 nM | 0.31 nM | 1.3 nM | 4.2 | –
CC(C)c1ccccc1C1CN(Cc2ccccc2F)CCN1C1CC2(CCN(c3ccc(C(=O)NS(=O)(=O)c4ccc(NC[C@H]5CC[C@](C)(O)CC5)c([N+](=O)[O-])c4)c(Oc4cnc5[nH]ccc5c4)c3)CC2)C1 (some centres unmarked) [Example 46, 2-((1H-pyrrolo[2,3-b]pyridin-5-yl)oxy)-4-(2-(4-(2-fluorobenzyl)-2-(2-isopropylphenyl)piperazin-1-yl)-7-azaspiro[3.5]nonan-7-yl)-N-((4-((((1r,4r)-4-hydroxy-4-methylcyclohexyl)methyl)amino)-3-nitrophenyl)sulfonyl)benzamide] | 0.34 nM | 0.34 nM | 2.7 nM | 7.9 | –
COc1ccc(CN2CCN(C3CC4(CCN(c5ccc(C(=O)NS(=O)(=O)c6ccc(NC[C@H]7CC[C@](C)(O)CC7)c([N+](=O)[O-])c6)c(Oc6cnc7[nH]ccc7c6)c5)CC4)C3)C(c3ccccc3C(C)C)C2)c(OC)c1 (some centres unmarked) [Example 48] | 0.072 nM | 0.072 nM | 0.33 nM | 4.6 | –
CC(C)c1ccccc1C1CN(Cc2cc(F)cc(F)c2)CCN1C1CC2(CCN(c3ccc(C(=O)NS(=O)(=O)c4ccc(NC[C@H]5CC[C@](C)(O)CC5)c([N+](=O)[O-])c4)c(Oc4cnc5[nH]ccc5c4)c3)CC2)C1 (some centres unmarked) [Example 51, 2-((1H-pyrrolo[2,3-b]pyridin-5-yl)oxy)-4-(2-(4-(3,5-difluorobenzyl)-2-(2-isopropylphenyl)piperazin-1-yl)-7-azaspiro[3.5]nonan-7-yl)-N-((4-((((1r,4r)-4-hydroxy-4-methylcyclohexyl)methyl)amino)-3-nitrophenyl)sulfonyl)benzamide] | 0.42 nM | 0.42 nM | 1.6 nM | 3.8 | –
CC(C)c1ccccc1C1CN(Cc2ccc(F)c(F)c2)CCN1C1CC2(CCN(c3ccc(C(=O)NS(=O)(=O)c4ccc(NC[C@H]5CC[C@](C)(O)CC5)c([N+](=O)[O-])c4)c(Oc4cnc5[nH]ccc5c4)c3)CC2)C1 (some centres unmarked) [Example 52, 2-((1H-pyrrolo[2,3-b]pyridin-5-yl)oxy)-4-(2-(4-(3,4-difluorobenzyl)-2-(2-isopropylphenyl)piperazin-1-yl)-7-azaspiro[3.5]nonan-7-yl)-N-((4-((((1r,4r)-4-hydroxy-4-methylcyclohexyl)methyl)amino)-3-nitrophenyl)sulfonyl)benzamide] | 0.24 nM | 0.24 nM | 0.73 nM | 3.0 | –
COc1ccc(CN2CCN(C3CC4(CCN(c5ccc(C(=O)NS(=O)(=O)c6ccc(NC[C@H]7CC[C@](C)(O)CC7)c([N+](=O)[O-])c6)c(Oc6cnc7[nH]ccc7c6)c5)CC4)C3)C(c3ccccc3C(C)C)C2)cn1 (some centres unmarked) [Example 72, 2-((1H-pyrrolo[2,3-b]pyridin-5-yl)oxy)-N-((4-((((1r,4r)-4-hydroxy-4-methylcyclohexyl)methyl)amino)-3-nitrophenyl)sulfonyl)-4-(2-(2-(2-isopropylphenyl)-4-((6-methoxypyridin-3-yl)methyl)piperazin-1-yl)-7-azaspiro[3.5]nonan-7-yl)benzamide] | 0.05 nM | 0.05 nM | 0.2 nM | 4 | –
CC(C)c1ccccc1[C@@H]1CN(Cc2cccc3c2OCCO3)CCN1C1CC2(CCN(c3ccc(C(=O)NS(=O)(=O)c4ccc(NC[C@H]5CC[C@](C)(O)CC5)c([N+](=O)[O-])c4)c(Oc4cnc5[nH]ccc5c4)c3)CC2)C1 [Example 79a, 2-((1H-pyrrolo[2,3-b]pyridin-5-yl)oxy)-4-(2-(R-4-((2,3-dihydrobenzo [b][1,4]dioxin-5-yl)methyl)-2-(2-isopropylphenyl)piperazin-1-yl)-7-azaspiro[3.5]nonan-7-yl)-N-((4-((((1r,4r)-4-hydroxy-4-methylcyclohexyl)methyl)amino)-3-nitrophenyl)sulfonyl)benzamide] | 0.11 nM | 0.11 nM | 0.25 nM | 2.4 | –
COc1ccc(CN2CCN(C3CC4(CCN(c5ccc(C(=O)NS(=O)(=O)c6ccc(NC[C@H]7CC[C@](C)(O)CC7)c([N+](=O)[O-])c6)c(Oc6cnc7[nH]ccc7c6)c5)CC4)C3)[C@H](c3ccccc3C(C)C)C2)cc1OC [Example 81a, 2-((1H-pyrrolo[2,3-b]pyridin-5-yl)oxy)-4-(2-((R)-4-(3,4-dimethoxybenzyl)-2-(2-isopropylphenyl)piperazin-1-yl)-7-azaspiro[3.5]nonan-7-yl)-N-((4-((((1r,4r)-4-hydroxy-4-methylcyclohexyl)methyl)amino)-3-nitrophenyl)sulfonyl)benzamide] | 0.038 nM | – | 0.075 nM | 2.0 | –
COc1ccc(CN2CCN(C3CC4(CCN(c5ccc(C(=O)NS(=O)(=O)c6ccc(NC[C@H]7CC[C@](C)(O)CC7)c([N+](=O)[O-])c6)c(Oc6cnc7[nH]cc(F)c7c6)c5)CC4)C3)[C@H](c3ccccc3C(C)C)C2)cc1OC [Example 127, 4-(2-((R)-4-(3,4-dimethoxybenzyl)-2-(2-isopropylphenyl)piperazin-1-yl)-7-azaspiro[3.5]nonan-7-yl)-2-((3-fluoro-1H-pyrrolo[2,3-b]pyridin-5-yl)oxy)-N-((4-((((1r,4r)-4-hydroxy-4-methylcyclohexyl)methyl)amino)-3-nitrophenyl)sulfonyl)benzamide] | 0.071 nM | 0.1 nM | 0.13 nM | 1.8 | much lower
COc1ccc(CN2CCN(C3CC4(C3)CN(c3ccc(C(=O)NS(=O)(=O)c5ccc(NC[C@H]6CC[C@](C)(O)CC6)c([N+](=O)[O-])c5)c(Oc5cnc6[nH]cc(F)c6c5)c3)C4)[C@H](c3ccccc3C(C)C)C2)cc1OC [Example 141a, 4-(6-((R)-4-(3,4-dimethoxybenzyl)-2-(2-isopropylphenyl)piperazin-1-yl)-2-azaspiro[3.3]heptan-2-yl)-2-((3-fluoro-1H-pyrrolo[2,3-b]pyridin-5-yl)oxy)-N-((4-((((1r,4r)-4-hydroxy-4-methylcyclohexyl)methyl)amino)-3-nitrophenyl)sulfonyl)benzamide] | 0.054 nM | 0.054 nM | 0.13 nM | 2.5 | much lower
